Assay results as given in patent publication US8609836B2, “4-aryl-2-anilino-pyrimidines” (Janssen Pharmaceutica NV, priority 2008, dated 2013).

Key:
Assay type in all cases: biochemical
[1] = biological target: PLK4 (h) (Homo sapiens, UniProt O00444); experiment: PLK-4 human kinase inhibition, scintillation proximity assay (SPA); conditions: read-out: PLK4 pIC50 (converted)
[2] = biological target: AuroraB (h) (Homo sapiens, UniProt Q96GD4); experiment: Aurora-B human kinase inhibition, SPA; conditions: read-out: AuroraB pIC50 (converted)
Outline: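 SPA with biotinylated peptide (3 μM) in 60 mM Hepes pH 7.5, Mg/Mn 3 mM each, 0.5 μM ATP plus [γ-33P]ATP, AuroraB at 0.5 μg/ml. The reaction runs 60 min at room temperature and is stopped with EDTA and streptavidin PVT beads. 33P-substrate is read by scintillation imaging.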

[3] = biological target: CDK1/CyclinB (h) (Homo sapiens, UniProt P06493); experiment: CDK1/CyclinB human kinase inhibition, Invitrogen's FRET assay (Z'lyte); conditions: read-out: CDK1 pIC50 (converted)
Outline: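 Z'lyte FRET assay: human CDK1/CyclinB (0.2 μg/ml) with 2 μM Ser/Thr peptide 12 and 10 μM ATP in 50 mM Hepes pH 7.5, MgCl2, EGTA, Brij-35, 60 min at room temperature. Protease development 60 min, then emission ratio 460/538 nm read with excitation at 390 nm.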

CDK1/CyclinB (h), sequence (P06493 whole entry): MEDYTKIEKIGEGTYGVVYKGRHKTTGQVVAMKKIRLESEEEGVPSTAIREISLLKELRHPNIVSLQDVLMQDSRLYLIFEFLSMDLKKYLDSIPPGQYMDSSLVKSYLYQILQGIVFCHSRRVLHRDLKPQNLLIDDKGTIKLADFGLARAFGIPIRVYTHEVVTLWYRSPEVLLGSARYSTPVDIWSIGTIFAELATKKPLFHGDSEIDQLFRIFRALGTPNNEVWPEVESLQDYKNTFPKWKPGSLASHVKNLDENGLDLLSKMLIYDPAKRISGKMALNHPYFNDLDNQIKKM
CDK1/CyclinB (h), sequence (P14635 whole entry partner): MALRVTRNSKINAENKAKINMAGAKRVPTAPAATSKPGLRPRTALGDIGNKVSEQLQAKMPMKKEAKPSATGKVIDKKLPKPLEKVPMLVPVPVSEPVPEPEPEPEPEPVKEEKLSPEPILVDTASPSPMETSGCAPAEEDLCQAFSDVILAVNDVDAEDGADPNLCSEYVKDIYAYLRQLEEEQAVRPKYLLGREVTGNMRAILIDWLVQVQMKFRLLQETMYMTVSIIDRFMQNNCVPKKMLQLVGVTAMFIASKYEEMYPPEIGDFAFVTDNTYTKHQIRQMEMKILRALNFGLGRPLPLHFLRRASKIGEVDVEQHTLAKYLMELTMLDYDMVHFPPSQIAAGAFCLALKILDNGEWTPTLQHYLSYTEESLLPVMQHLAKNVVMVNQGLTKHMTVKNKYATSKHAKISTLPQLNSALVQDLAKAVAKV
AuroraB (h), sequence (Q96GD4 whole entry): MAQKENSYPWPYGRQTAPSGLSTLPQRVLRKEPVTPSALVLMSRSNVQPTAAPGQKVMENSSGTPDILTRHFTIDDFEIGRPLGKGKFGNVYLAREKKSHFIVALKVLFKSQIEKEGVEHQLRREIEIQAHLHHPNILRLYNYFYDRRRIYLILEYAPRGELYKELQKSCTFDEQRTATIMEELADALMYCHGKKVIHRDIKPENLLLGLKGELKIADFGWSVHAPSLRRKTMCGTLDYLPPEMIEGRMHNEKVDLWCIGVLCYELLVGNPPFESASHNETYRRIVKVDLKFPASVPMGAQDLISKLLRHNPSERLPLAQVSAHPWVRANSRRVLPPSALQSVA
PLK4 (h), sequence (O00444 whole entry): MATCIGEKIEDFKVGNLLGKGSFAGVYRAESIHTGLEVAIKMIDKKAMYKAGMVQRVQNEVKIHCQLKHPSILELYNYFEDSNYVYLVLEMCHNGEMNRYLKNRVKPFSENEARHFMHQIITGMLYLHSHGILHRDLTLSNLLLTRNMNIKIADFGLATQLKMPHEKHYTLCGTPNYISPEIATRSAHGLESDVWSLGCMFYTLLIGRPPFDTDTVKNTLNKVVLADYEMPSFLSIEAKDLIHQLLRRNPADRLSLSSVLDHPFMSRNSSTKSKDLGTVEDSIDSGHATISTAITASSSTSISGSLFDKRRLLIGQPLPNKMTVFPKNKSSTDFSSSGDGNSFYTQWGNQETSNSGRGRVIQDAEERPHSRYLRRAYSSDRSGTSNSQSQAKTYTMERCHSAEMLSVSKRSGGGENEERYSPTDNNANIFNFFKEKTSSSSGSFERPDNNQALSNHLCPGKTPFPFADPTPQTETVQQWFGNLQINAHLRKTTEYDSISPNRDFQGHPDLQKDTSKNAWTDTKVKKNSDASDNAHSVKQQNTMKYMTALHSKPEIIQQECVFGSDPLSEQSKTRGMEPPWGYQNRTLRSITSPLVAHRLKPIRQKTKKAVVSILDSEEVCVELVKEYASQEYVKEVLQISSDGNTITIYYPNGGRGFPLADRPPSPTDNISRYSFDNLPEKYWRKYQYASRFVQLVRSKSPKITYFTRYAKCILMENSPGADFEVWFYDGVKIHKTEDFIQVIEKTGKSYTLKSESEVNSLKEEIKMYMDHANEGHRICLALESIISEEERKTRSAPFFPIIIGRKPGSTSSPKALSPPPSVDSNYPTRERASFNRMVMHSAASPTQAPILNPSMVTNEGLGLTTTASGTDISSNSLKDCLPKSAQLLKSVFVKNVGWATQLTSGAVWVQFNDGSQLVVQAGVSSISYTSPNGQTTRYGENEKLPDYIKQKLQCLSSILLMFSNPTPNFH

IC50 [1] | IC50 [2] | IC50 [3] | SMILES
> 10 µM | > 10 µM | > 10 µM | O=C1NCc2cccc(c2)-c2ccnc(n2)Nc2cc(ccc2Cl)CN2CCC[C@@H]12 [Compound 51]
> 10 µM | > 10 µM | > 10 µM | O=C1NCc2cccc(c2)-c2ccnc(n2)Nc2cc(ccc2Cl)CN2C[C@H](O)C[C@@H]12 [Compound 52]
> 10 µM | > 10 µM | > 10 µM | O=C1NCc2cccc(c2)-c2ccnc(n2)Nc2ccc(cc2)CN2CCC[C@@H]12 [Compound 54]
> 10 µM | > 10 µM | > 10 µM | O=C1NCc2cccc(c2)-c2ccnc(n2)Nc2ccc(cc2)CN2C[C@H](O)C[C@@H]12 [Compound 55]
~10 µM | > 10 µM | > 10 µM | O=C1NCc2ccc(cc2)-c2ccnc(n2)Nc2ccc(N3CCOCC3)c(c2)CN2C[C@H](O)C[C@@H]12 [Compound 56]
> 10 µM | > 10 µM | > 10 µM | O=C1NCc2cccc(c2)-c2ccnc(n2)Nc2ccccc2CN2CCC[C@@H]12 [Compound 57]
> 10 µM | > 10 µM | > 10 µM | CC(C)(C)O[C@@H]1C[C@H]2C(=O)NCc3cccc(c3)-c3ccnc(n3)Nc3ccccc3CN2C1 [Compound 58]
0.871 µM | > 10 µM | > 10 µM | COc1cc2cc(c1)Nc1nccc(n1)-c1ccc(cc1)CN(C)CCNC(=O)C1CCN(CC1)C2 [Compound 62]
1.23 µM | > 10 µM | > 10 µM | CC(C)Nc1cc2cc(c1)Nc1nccc(n1)-c1ccc(cc1)CN(C)CCCNC(=O)C1CCN(CC1)C2 [Compound 65]
1.35 µM | > 10 µM | > 10 µM | COc1cc2cc(c1)Nc1nccc(n1)-c1ccc(cc1)CN(C)CCCNC(=O)C1CCN(CC1)C2 [Compound 66]
2.63 µM | > 10 µM | > 10 µM | O=C1NCCOc2cccc(c2)-c2ccnc(n2)Nc2ccc(N3CCOCC3)c(c2)CN2CCC1CC2 [Compound 94]
6.61 µM | > 10 µM | 7.24 µM | O=C1NCc2cccc(c2)-c2ccnc(n2)Nc2ccc(N3CCOCC3)c(c2)CN2CCC1CC2 [Compound 95]
1.15 µM | > 10 µM | 0.151 µM | C[C@@H]1NCCc2cccc(c2)-c2ccnc(n2)Nc2ccc(N3CCOCC3)c(c2)CNC1=O [Compound 100]
1.82 µM | > 10 µM | > 10 µM | C[C@@H]1NCc2cccc(c2)-c2ccnc(n2)Nc2ccc(N3CCOCC3)c(c2)CNC1=O [Compound 101]
0.794 µM | > 10 µM | 2.57 µM | O=C1CN2CCN(CC2)Cc2cc(ccc2N2CCOCC2)Nc2nccc(n2)-c2cccc(c2)OCCN1 [Compound 102]
0.447 µM | 4.79 µM | > 10 µM | COc1ccc2cc1CN(C)CCNC(=O)[C@H](CO)NCc1cc(cc(N3CCOCC3)c1)Nc1nccc-2n1 [Compound 105]
0.589 µM | 2.04 µM | > 10 µM | COc1cc2cc(c1)Nc1nccc(n1)-c1ccc(OC)c(c1)CN(C)CCNC(=O)[C@H](CO)NC2 [Compound 107]
3.24 µM | 6.61 µM | > 10 µM | COc1ccc2cc1CN(C)CCCNC(=O)[C@H](CO)NCc1cccc(c1)Nc1nccc-2n1 [Compound 118]

IC50 [1] | IC50 [2] | IC50 [3] | SMILES
3.89 µM | > 10 µM | > 10 µM | COc1ccc2cc1CN(C)CCNC(=O)[C@H](CO)NCc1cc(Br)cc(c1)Nc1nccc-2n1 [Compound 119]
8.71 µM | > 10 µM | 0.372 µM | O=C1NCc2cccc(c2)-c2ccnc(n2)Nc2cccc(c2)CN2CCC1CC2 [Compound 124]
1.26 µM | > 10 µM | > 10 µM | CC(C)Nc1cc2cc(c1)Nc1nccc(n1)-c1ccc(cc1)CN(C)CCCNC(=O)CN1CCN(CC1)C2 [Compound 131]
1.41 µM | > 10 µM | > 10 µM | COc1cc2cc(c1)Nc1nccc(n1)-c1ccc(cc1)CN(C)CCNC(=O)CN1CCN(CC1)C2 [Compound 132]
1.62 µM | > 10 µM | 4.79 µM | CN1CCNC(=O)CN2CCN(CC2)Cc2cccc(c2)Nc2nccc(n2)-c2ccc(cc2)C1 [Compound 134]
0.813 µM | 11 µM | 0.00363 µM | O=C1NCc2cc(ccc2N2CCOCC2)Nc2nccc(n2)-c2cccc(c2)CCCN2CCC[C@@H]12 [Compound 149]
0.692 µM | 7.94 µM | > 10 µM | COc1ccc2cc1CN(C)CCNC(=O)[C@@H]1CCCN1Cc1cc(cc(N3CCOCC3)c1)Nc1nccc-2n1 [Compound 152]
2.04 µM | 6.61 µM | > 10 µM | COc1cc2cc(c1)Nc1nccc(n1)-c1ccc(OC)c(c1)CN(C)CCNC(=O)[C@@H]1CCCN1C2 [Compound 162]
2.45 µM | > 10 µM | > 10 µM | COc1ccc2cc1CN(C)CCNC(=O)[C@@H]1CCCN1Cc1cc(NCCc3ccccc3)cc(c1)Nc1nccc-2n1 [Compound 163]
2.82 µM | > 10 µM | > 10 µM | COc1ccc2cc1CN(C)CCNC(=O)[C@@H]1CCCN1Cc1cc(cc(NC(C)C)c1)Nc1nccc-2n1 [Compound 165]
3.55 µM | > 10 µM | > 10 µM | COc1ccc2cc1CN(C)CCCNC(=O)[C@@H]1CCCN1Cc1cc(NCCc3ccccc3)cc(c1)Nc1nccc-2n1 [Compound 167]
3.55 µM | 2.57 µM | 8.13 µM | CN1CCN(C)c2ccc(cn2)-c2ccnc(n2)Nc2cc(c3c(c2)OCO3)CN2CCC[C@H]2C1=O [Compound 168]
5.01 µM | > 10 µM | > 10 µM | COc1cc2cc(c1)Nc1nccc(n1)-c1ccc(OC)c(c1)CN(C)CCCNC(=O)[C@@H]1CCCN1C2 [Compound 171]
> 10 µM | > 10 µM | > 10 µM | COc1ccc2cc1CN(C)CCNC(=O)[C@@H]1CCCN1Cc1cc(C#N)cc(c1)Nc1nccc-2n1 [Compound 181]
0.692 µM | > 10 µM | 7.59 µM | C[C@@H]1NCc2cc(ccc2N2CCOCC2)Nc2nccc(n2)-c2cccc(c2)CNC1=O [Compound 182]
0.776 µM | > 10 µM | 0.398 µM | C[C@@H]1NCc2cccc(c2)Nc2nccc(n2)-c2cccc(c2)CNC1=O [Compound 184]
0.794 µM | > 10 µM | 4.79 µM | O=C1NCc2cccc(c2)-c2ccnc(n2)Nc2cccc(c2)CN[C@H]1Cc1ccccc1 [Compound 185]
1.02 µM | > 10 µM | > 10 µM | C[C@@H]1NCc2ccc(Cl)c(c2)Nc2nccc(n2)-c2cccc(c2)CNC1=O [Compound 186]

SMILES | IC50 [1] | IC50 [2] | IC50 [3]
COc1cc2cc(c1)Nc1nccc(n1)-c1ccc(OC)c(c1)CN(C)CCNC(=O)C1CCN(CC1)C2 [Compound 67] | 1.51 µM | 5.13 µM | > 10 µM
COc1cc2cc(c1)Nc1nccc(n1)-c1ccc(OC)c(c1)CN(C)CCCNC(=O)C1CCN(CC1)C2 [Compound 73] | 2.57 µM | > 10 µM | > 10 µM
COc1ccc2cc1CN(C)CCNC(=O)C1CCN(CC1)Cc1cc(NCCc3ccccc3)cc(c1)Nc1nccc-2n1 [Compound 74] | 2.95 µM | > 10 µM | > 10 µM
COc1cc2cc(c1)Nc1nccc(n1)-c1ccc(cc1)CN(C)CCNC(=O)[C@H](CO)NC2 [Compound 109] | 0.741 µM | 7.41 µM | > 10 µM
CN1CCNC(=O)[C@H](CO)NCc2cccc(c2)Nc2nccc(n2)-c2ccc(cc2)C1 [Compound 114] | 1.2 µM | 7.08 µM | > 10 µM
COc1cc2cc(c1)Nc1nccc(n1)-c1ccc(OC)c(c1)CN(C)CCNC(=O)CN1CCN(CC1)C2 [Compound 127] | 0.813 µM | 2 µM | > 10 µM
COc1ccc2cc1CN(C)CCNC(=O)CN1CCN(CC1)Cc1cc(NCCc3ccccc3)cc(c1)Nc1nccc-2n1 [Compound 138] | 2.14 µM | > 10 µM | > 10 µM
COc1cc2cc(c1)Nc1nccc(n1)-c1ccc(OC)c(c1)CN(C)CCCNC(=O)CN1CCN(CC1)C2 [Compound 140] | 2.69 µM | > 10 µM | > 10 µM
CC(C)Nc1cc2cc(c1)Nc1nccc(n1)-c1ccc(cc1)CN(C)CCCNC(=O)[C@@H]1CCCN1C2 [Compound 151] | 0.646 µM | > 10 µM | > 10 µM
CN1CCNC(=O)[C@@H]2CCCN2Cc2cc(cc(N3CCOCC3)c2)Nc2nccc(n2)-c2ccc(cc2)C1 [Compound 154] | 0.813 µM | > 10 µM | > 10 µM
COc1cc2cc(c1)Nc1nccc(n1)-c1ccc(cc1)CN(C)CCCNC(=O)[C@@H]1CCCN1C2 [Compound 156] | 0.912 µM | > 10 µM | > 10 µM
O=C1NCCNCc2ccc(cc2)-c2ccnc(n2)Nc2ccc(N3CCOCC3)c(c2)CN2CCC[C@@H]12 [Compound 157] | 1.07 µM | 9.55 µM | > 10 µM
COc1cc2cc(c1)Nc1nccc(n1)-c1ccc(cc1)CN(C)CCNC(=O)[C@@H]1CCCN1C2 [Compound 158] | 1.15 µM | > 10 µM | 8.71 µM
CN1CCNC(=O)[C@@H]2CCCN2Cc2cccc(c2)Nc2nccc(n2)-c2ccc(cc2)C1 [Compound 160] | 1.55 µM | > 10 µM | > 10 µM
